Experimental data as given in US20060134102A1, “Lymphotoxin beta receptor agents in combination with chemotherapeutic agents” (Biogen Idec MA Inc., priority 2002, published 2006).

System: KM-20L2 human colorectal adenocarcinoma
Experiment: KM-20L2 xenograft model: growth of established KM-20L2 human colorectal tumors in athymic nude mice (tumor volume/weight, % T/C, Fa, Combination Index)
Type: in vivo

Structure (SMILES): Nc1ccn([C@@H]2O[C@H](CO)[C@@H](O)C2(F)F)c(=O)n1 [Gemcitabine, gemcitabine, reference compound]
- Mean Fraction Affected (Fa) (Gem 5 mg/kg, Day 9): 0.097
- Mean Fraction Affected/Fraction Unaffected (Fa/Fu) (Gem 5 mg/kg, Day 9): 0.107
- Mean Tumor Volume (Gem 5 mg/kg, Day 9): 101.0 cubic mm
- Mean Tumor Volume Decrease (Gem 5 mg/kg, Day 9): 10.8 cubic mm
- Mean Fraction Affected (Fa) (Gem 5 mg/kg, Day 13): 0.178
- Mean Fraction Affected/Fraction Unaffected (Fa/Fu) (Gem 5 mg/kg, Day 13): 0.217
- Mean Tumor Volume (Gem 5 mg/kg, Day 13): 141.8 cubic mm
- Mean Tumor Volume Decrease (Gem 5 mg/kg, Day 13): 30.8 cubic mm
- Mean Fraction Affected (Fa) (Gem 5 mg/kg, Day 16): 0.230
- Mean Fraction Affected/Fraction Unaffected (Fa/Fu) (Gem 5 mg/kg, Day 16): 0.298
- Mean Tumor Volume (Gem 5 mg/kg, Day 16): 204.1 cubic mm
- Mean Tumor Volume Decrease (Gem 5 mg/kg, Day 16): 60.9 cubic mm
- Mean Fraction Affected (Fa) (Gem 5 mg/kg, Day 20): 0.310
- Mean Fraction Affected/Fraction Unaffected (Fa/Fu) (Gem 5 mg/kg, Day 20): 0.449
- Mean Tumor Volume (Gem 5 mg/kg, Day 20): 276.8 cubic mm
- Mean Tumor Volume Decrease (Gem 5 mg/kg, Day 20): 124.2 cubic mm
- Mean Fraction Affected (Fa) (Gem 5 mg/kg, Day 23): 0.295
- Mean Fraction Affected/Fraction Unaffected (Fa/Fu) (Gem 5 mg/kg, Day 23): 0.419
- Mean Tumor Volume (Gem 5 mg/kg, Day 23): 371.6 cubic mm
- Mean Tumor Volume Decrease (Gem 5 mg/kg, Day 23): 155.6 cubic mm
- Mean Fraction Affected (Fa) (Gem 5 mg/kg, Day 27): 0.242
- Mean Fraction Affected/Fraction Unaffected (Fa/Fu) (Gem 5 mg/kg, Day 27): 0.320
- Mean Tumor Volume (Gem 5 mg/kg, Day 27): 506.7 cubic mm
- Mean Tumor Volume Decrease (Gem 5 mg/kg, Day 27): 161.9 cubic mm
- Mean Fraction Affected (Fa) (Gem 5 mg/kg, Day 30): 0.245
- Mean Fraction Affected/Fraction Unaffected (Fa/Fu) (Gem 5 mg/kg, Day 30): 0.325
- Mean Tumor Volume (Gem 5 mg/kg, Day 30): 616.2 cubic mm
- Mean Tumor Volume Decrease (Gem 5 mg/kg, Day 30): 200.0 cubic mm
- Mean Fraction Affected (Fa) (Gem 5 mg/kg, Day 34): 0.295
- Mean Fraction Affected/Fraction Unaffected (Fa/Fu) (Gem 5 mg/kg, Day 34): 0.419
- Mean Tumor Volume (Gem 5 mg/kg, Day 34): 740.4 cubic mm
- Mean Tumor Volume Decrease (Gem 5 mg/kg, Day 34): 309.9 cubic mm
- Mean Fraction Affected (Fa) (Gem 5 mg/kg, Day 37): 0.274
- Mean Fraction Affected/Fraction Unaffected (Fa/Fu) (Gem 5 mg/kg, Day 37): 0.377
- Mean Tumor Volume (Gem 5 mg/kg, Day 37): 877.5 cubic mm
- Mean Tumor Volume Decrease (Gem 5 mg/kg, Day 37): 330.5 cubic mm
- Mean Fraction Affected (Fa) (Gem 5 mg/kg, Day 41): 0.253
- Mean Fraction Affected/Fraction Unaffected (Fa/Fu) (Gem 5 mg/kg, Day 41): 0.339
- Mean Tumor Volume (Gem 5 mg/kg, Day 41): 1075.3 cubic mm
- Mean Tumor Volume Decrease (Gem 5 mg/kg, Day 41): 364.1 cubic mm
- Mean Fraction Affected (Fa) (Gem 5 mg/kg, Day 43): 0.226
- Mean Fraction Affected/Fraction Unaffected (Fa/Fu) (Gem 5 mg/kg, Day 43): 0.291
- Mean Tumor Volume (Gem 5 mg/kg, Day 43): 1244.3 cubic mm
- Mean Tumor Volume Decrease (Gem 5 mg/kg, Day 43): 362.4 cubic mm
- Mean Fraction Affected (Fa) (Gem 10 mg/kg, Day 9): 0.084
- Mean Fraction Affected/Fraction Unaffected (Fa/Fu) (Gem 10 mg/kg, Day 9): 0.092
- Mean Tumor Volume (Gem 10 mg/kg, Day 9): 102.4 cubic mm
- Mean Tumor Volume Decrease (Gem 10 mg/kg, Day 9): 9.4 cubic mm
- Mean Fraction Affected (Fa) (Gem 10 mg/kg, Day 13): 0.184
- Mean Fraction Affected/Fraction Unaffected (Fa/Fu) (Gem 10 mg/kg, Day 13): 0.225
- Mean Tumor Volume (Gem 10 mg/kg, Day 13): 140.9 cubic mm
- Mean Tumor Volume Decrease (Gem 10 mg/kg, Day 13): 31.7 cubic mm
- Mean Fraction Affected (Fa) (Gem 10 mg/kg, Day 16): 0.362
- Mean Fraction Affected/Fraction Unaffected (Fa/Fu) (Gem 10 mg/kg, Day 16): 0.568
- Mean Tumor Volume (Gem 10 mg/kg, Day 16): 169.0 cubic mm
- Mean Tumor Volume Decrease (Gem 10 mg/kg, Day 16): 96.0 cubic mm
- Mean Fraction Affected (Fa) (Gem 10 mg/kg, Day 20): 0.422
- Mean Fraction Affected/Fraction Unaffected (Fa/Fu) (Gem 10 mg/kg, Day 20): 0.731
- Mean Tumor Volume (Gem 10 mg/kg, Day 20): 231.7 cubic mm
- Mean Tumor Volume Decrease (Gem 10 mg/kg, Day 20): 169.3 cubic mm
- Mean Fraction Affected (Fa) (Gem 10 mg/kg, Day 23): 0.410
- Mean Fraction Affected/Fraction Unaffected (Fa/Fu) (Gem 10 mg/kg, Day 23): 0.694
- Mean Tumor Volume (Gem 10 mg/kg, Day 23): 311.2 cubic mm
- Mean Tumor Volume Decrease (Gem 10 mg/kg, Day 23): 216.0 cubic mm
- Mean Fraction Affected (Fa) (Gem 10 mg/kg, Day 27): 0.376
- Mean Fraction Affected/Fraction Unaffected (Fa/Fu) (Gem 10 mg/kg, Day 27): 0.602
- Mean Tumor Volume (Gem 10 mg/kg, Day 27): 417.4 cubic mm
- Mean Tumor Volume Decrease (Gem 10 mg/kg, Day 27): 251.2 cubic mm
- Mean Fraction Affected (Fa) (Gem 10 mg/kg, Day 30): 0.388
- Mean Fraction Affected/Fraction Unaffected (Fa/Fu) (Gem 10 mg/kg, Day 30): 0.634
- Mean Tumor Volume (Gem 10 mg/kg, Day 30): 499.5 cubic mm
- Mean Tumor Volume Decrease (Gem 10 mg/kg, Day 30): 316.7 cubic mm
- Mean Fraction Affected (Fa) (Gem 10 mg/kg, Day 34): 0.388
- Mean Fraction Affected/Fraction Unaffected (Fa/Fu) (Gem 10 mg/kg, Day 34): 0.635
- Mean Tumor Volume (Gem 10 mg/kg, Day 34): 642.3 cubic mm
- Mean Tumor Volume Decrease (Gem 10 mg/kg, Day 34): 408.0 cubic mm
- Mean Fraction Affected (Fa) (Gem 10 mg/kg, Day 37): 0.401
- Mean Fraction Affected/Fraction Unaffected (Fa/Fu) (Gem 10 mg/kg, Day 37): 0.669
